Results published in patent publication US20050181457A1, “FcyrIII signaling inhibitor assay” (priority 2002, published 2005).

System: FcγRIII signaling
Test: FcγRIII signaling inhibitor assay: IgG2a-complex stimulated DC18 C10 cells, hTNFα promoter-luciferase reporter
Assay type: cell-based, mouse
Details: DC18 C10 cells stimulated with IgG2a complexes; inhibitor at its described IC50 concentration; FIG. 3
Procedure: Cells are transfected by electroporation at optimised conditions (200V, 960 pF) with a TNFα promoter—luciferase—TNFα 3′ end construct and plated in 10 ml of medium immediately after electroporation and purified by Lymphoprep the next day. 1×10^4 viable cells per well are plated in 96 well microtiter plates in 100 μl of medium each plus 250 μg/ml of geneticin (G418). Two days later 100 μl of fresh medium are added. Every second day 100 μl of medium are removed and substituted by 100 μl of fresh medium. Stable clones are selected by conventional cell culture methods and single cell cloning. […] The best responder is subjected to one round of further limited dilution cloning (single cell cloning) and named DC18 clone10 (=DC18 C10). This clone is selected for all further studies.
1×10^4 cells are seeded in 50 μl medium per well (Optiplate, Packard). Incubation with candidate compounds is done for 45 minutes prior to stimulation with 5 μg/ml of murine IgG of different subtypes complexed either with 10 μg/ml of DNP-BSA or 30 μg/ml of rabbit anti mouse Ig F(ab′)2 fragments. Stimulation is carried on for further 4 hours. Subsequently 13 μl of a 5 times concentrated reporter lysis buffer (Promega) are added and cells are lysed by freeze-(−80°) thaw cycle. For the readout 50 μl of luciferase substrate (Promega) are added and luciferase activity is measured in a MicroBetaJet (Wallac). […]

O=c1cc(-c2ccc(O)cc2)oc2cc(O)cc(O)c12 [Apigenin] was tested. Which “inhibition of IgG2a complexes-provoked luciferase induction (readout)” value did it give?
The value was “inhibits IgG2a complexes-provoked luciferase induction”.
